We go through 2 molecules from ChEMBL document CHEMBL6120994, “Unravelling the potential of natural chelating agents in the control of Staphylococcus aureus and Pseudomonas aeruginosa biofilms” (Eur J Med Chem, 2025).

Each structure is given as a SMILES string.

Common to all, as to type: functional
The subject of experiment [1] is Pseudomonas aeruginosa. The experiment in a line: Antibiofilm activity against Pseudomonas aeruginosa PAK01 biofilm assessed as reduction of bacterial biomass by crystal violet staining based analysis.
A further experiment concerns Escherichia coli. The experiment in a line: Antibacterial activity against Escherichia coli BNCC133721 assessed as inhibition of bacterial growth measured after 24 hrs by broth microdilution method.
Experiment [2] concerns Pseudomonas aeruginosa. The experiment in a line: Antibiotic adjuvant activity against Pseudomonas aeruginosa ATCC 10145 assessed as ciprofloxacin MBC at 125 ug/ml measured after 24 hrs in presence of ciprofloxacin by checkerboard assay (reference value: 32 ug/ml). The conditions noted are these: dose 125 µg/ml.
Experiment [3] deals with Pseudomonas aeruginosa. The experiment is described as follows: Antibiotic adjuvant activity against Pseudomonas aeruginosa ATCC 10145 assessed as ciprofloxacin MBC at 15.6 ug/ml measured after 24 hrs in presence of ciprofloxacin by checkerboard assay (reference value: 32 ug/ml). Conditions: dose 15.6 µg/ml.
Experiment [4] has as its system Pseudomonas aeruginosa. The experiment in a line: Antibiofilm activity against preestablished 24 hr-old Pseudomonas aeruginosa ATCC 10145 assessed as reduction in biofilm cells culturability by measuring log reduction of CFU of biofilm cells at 10XMTC measured after 24 hrs by visual counting method.
Experiment [5] deals with Pseudomonas aeruginosa. The experiment in a line: Antibiofilm activity against Pseudomonas aeruginosa ATCC 10145 assessed as reduction in metabolic activity of biofilm cells at 1000 ug/ml by resazurin staining based fluorescence analysis.

`O=c1cc(CO)occ1O` [KOJIC ACID]: in the experiment with Pseudomonas aeruginosa [1], the “inhibition (INH)” value is listed as 5%. Further, in the experiment on Escherichia coli, the Activity is >1000 µg/mL. Also, the MBC in the experiment on Pseudomonas aeruginosa [2] is 32 µg/mL.
As to `Cc1occc(=O)c1O` [MALTOL], the MBC in the experiment on Pseudomonas aeruginosa [3] amounted to 32 µg/mL. Besides, the Activity in the experiment on Pseudomonas aeruginosa [4] is 3.1 log10CFU/cm^-2. Further, the inhibition at 1000 µg/mL with Pseudomonas aeruginosa [5] was determined as 30%.
